Source: patent US20100056524A1, “Compound” (priority 2008, published 2010)
Structures can show the parent of a compound that is named as a salt. Where two headings read alike, the source gives them in different places.

How the values were obtained:
PRAK = biological target: T1, PRAK (Homo sapiens, UniProt Q8IW41); experiment: PRAK protein kinase assay; format: biochemical; settings: for remaining activity at 10 µM: 10 μM compound; for residual kinase activity PRAK: 1 μm compound; for remaining activity at 1 µM: 1 μM compound
T1 construct: All protein kinases were of human origin and encoded full length proteins, unless indicated otherwise; made in house
T1 sequence (Q8IW41 1-473): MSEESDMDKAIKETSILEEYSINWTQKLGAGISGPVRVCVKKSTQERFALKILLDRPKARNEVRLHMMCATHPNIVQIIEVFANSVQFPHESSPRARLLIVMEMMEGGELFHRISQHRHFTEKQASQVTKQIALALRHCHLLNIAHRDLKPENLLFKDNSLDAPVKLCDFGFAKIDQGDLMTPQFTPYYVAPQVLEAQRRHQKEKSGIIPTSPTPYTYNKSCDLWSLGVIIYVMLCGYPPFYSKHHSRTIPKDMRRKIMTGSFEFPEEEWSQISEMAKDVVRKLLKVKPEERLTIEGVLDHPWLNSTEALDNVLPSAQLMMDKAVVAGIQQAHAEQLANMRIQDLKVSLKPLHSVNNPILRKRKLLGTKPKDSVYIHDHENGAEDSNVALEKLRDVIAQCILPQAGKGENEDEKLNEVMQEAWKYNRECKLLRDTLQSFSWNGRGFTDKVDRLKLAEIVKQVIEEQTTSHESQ
Description: (§1) All protein kinases were of human origin and encoded full length proteins, unless indicated otherwise. They were either expressed as glutathione S-transferase (GST) fusion proteins in Escherichia Coli or as hexahistidine (His6)-tagged proteins in insect Sf21 cells. GST fusion proteins were purified by affinity chromatography on glutathione-Sepharose, and His6-tagged proteins on nickel/nitriloacetate-agarose. The procedures for expressing some of the protein kinases used herein have been detailed previously.^8,9 The following sections outline the DNA vectors synthesised and the procedures used to express and purifying protein kinases that have not been reported previously.
(§2) All assays (25.5 μl) were carried out at room temperature (21° C.) and were linear with respect to time and enzyme concentration under the conditions used. Assays were performed for 30 min using Multidrop Micro reagent dispensers (Thermo Electron Corporation, Waltham, Mass. 02454, USA) in a 96-well format. The concentration of magnesium acetate in the assays was 10 mM and the [γ-33P] ATP (800 cpm/pmol) was used at 5, 20 or 50 μM as indicated, in order to be at or below the Km for ATP for each enzyme. Protein kinases assayed at 5 μM ATP were: —ERK1, ERK8, PKBα, MARK3, Aurora C. Protein kinases assayed at 20 μM ATP were: —JNK1, PDK1, CHK1, CHK2, CDK2 and Aurora B. Protein kinases assayed at 50 μM ATP were: —MNK2, IKKepsilon and TBK1.
(§3) The assays were initiated with MgATP, stopped by addition of 5 μl of 0.5 M orthophosphoric acid and spotted on to P81 filterplates using a unifilter harvester (PerkinElmer, Boston, Mass. 02118, USA). The IC50 values of inhibitors were determined after carrying out assays at 10 different concentrations of each compound.
(§4) Unless stated otherwise, enzymes were diluted in 50 mM Tris/HCl pH 7.5, 0.1 mM EGTA, 1 mg/ml BSA, 0.1% (v/v) 2-mercaptoethanol and assayed in 50 mM Tris/HCl pH 7.5, 0.1 mM EGTA, 0.1% (v/v) 2-mercaptoethanol.

AMPK = AMPK protein kinase assay; format: biochemical, human; settings: for residual kinase activity: AMPK
Description: as §1, §2, §3, §4

ROCK 2 = ROCK 2 protein kinase assay; format: biochemical, human; settings: for residual kinase activity: ROCK 2
Description: as §1, §2, §3, §4

Lck = biological target: T2, Lck (Homo sapiens, UniProt P06239); experiment: Lck protein kinase assay; format: biochemical; settings: for remaining activity at 10 µM: 10 μM compound; for residual kinase activity Lck: 1 μm compound; for remaining activity at 1 µM: 1 μM compound
T2 construct: All protein kinases were of human origin and encoded full length proteins, unless indicated otherwise; made in house
T2 sequence (P06239 whole entry): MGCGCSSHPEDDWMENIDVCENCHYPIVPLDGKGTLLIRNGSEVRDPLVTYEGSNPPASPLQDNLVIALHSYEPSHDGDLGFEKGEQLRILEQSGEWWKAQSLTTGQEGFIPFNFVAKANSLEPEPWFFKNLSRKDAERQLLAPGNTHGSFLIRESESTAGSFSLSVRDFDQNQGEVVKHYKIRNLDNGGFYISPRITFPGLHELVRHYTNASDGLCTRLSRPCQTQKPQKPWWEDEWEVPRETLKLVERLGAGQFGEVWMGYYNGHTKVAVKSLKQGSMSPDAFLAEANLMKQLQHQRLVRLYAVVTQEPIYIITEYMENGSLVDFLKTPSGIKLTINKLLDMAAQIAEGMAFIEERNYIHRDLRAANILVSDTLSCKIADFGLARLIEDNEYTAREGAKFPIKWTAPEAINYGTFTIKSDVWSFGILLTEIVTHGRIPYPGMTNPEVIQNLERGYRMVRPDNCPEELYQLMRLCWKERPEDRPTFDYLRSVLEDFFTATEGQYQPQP
Description: as §1, §2, §3, §4

PAK5 = biological target: T3, PAK5 (Homo sapiens, UniProt Q9P286); experiment: PAK5 protein kinase assay; format: biochemical; settings: for remaining activity at 10 µM: 10 μM compound; for residual kinase activity PAK5: 1 μm compound; for remaining activity at 1 µM: 1 μM compound
T3 construct: All protein kinases were of human origin and encoded full length proteins, unless indicated otherwise; made in house
T3 sequence (Q9P286 425-719 limits assumed): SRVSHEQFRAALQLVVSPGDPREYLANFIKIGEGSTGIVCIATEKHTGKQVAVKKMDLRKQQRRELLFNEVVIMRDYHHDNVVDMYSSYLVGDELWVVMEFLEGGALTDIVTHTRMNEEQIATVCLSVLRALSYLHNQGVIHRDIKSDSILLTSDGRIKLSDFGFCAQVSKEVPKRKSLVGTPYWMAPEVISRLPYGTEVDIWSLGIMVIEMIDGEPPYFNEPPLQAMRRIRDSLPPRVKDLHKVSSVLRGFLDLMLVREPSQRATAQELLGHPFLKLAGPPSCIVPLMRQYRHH
Description: as §1, §2, §3, §4

PIM3 = biological target: T4, PIM3 (Homo sapiens, UniProt Q86V86); experiment: PIM3 protein kinase assay; format: biochemical; settings: for remaining activity at 10 µM: 10 μM compound; for residual kinase activity PIM3: 1 μm compound; for remaining activity at 1 µM: 1 μM compound
T4 construct: All protein kinases were of human origin and encoded full length proteins, unless indicated otherwise; made in house
Description: as §1, §2, §3, §4

Src = biological target: T5, Src (Homo sapiens, UniProt P12931); experiment: Src protein kinase assay; format: biochemical; settings: for remaining activity at 10 µM: 10 μM compound; for residual kinase activity Src: 1 μm compound; for remaining activity at 1 µM: 1 μM compound
T5 construct: All protein kinases were of human origin and encoded full length proteins, unless indicated otherwise; made in house
T5 sequence (P12931 whole entry): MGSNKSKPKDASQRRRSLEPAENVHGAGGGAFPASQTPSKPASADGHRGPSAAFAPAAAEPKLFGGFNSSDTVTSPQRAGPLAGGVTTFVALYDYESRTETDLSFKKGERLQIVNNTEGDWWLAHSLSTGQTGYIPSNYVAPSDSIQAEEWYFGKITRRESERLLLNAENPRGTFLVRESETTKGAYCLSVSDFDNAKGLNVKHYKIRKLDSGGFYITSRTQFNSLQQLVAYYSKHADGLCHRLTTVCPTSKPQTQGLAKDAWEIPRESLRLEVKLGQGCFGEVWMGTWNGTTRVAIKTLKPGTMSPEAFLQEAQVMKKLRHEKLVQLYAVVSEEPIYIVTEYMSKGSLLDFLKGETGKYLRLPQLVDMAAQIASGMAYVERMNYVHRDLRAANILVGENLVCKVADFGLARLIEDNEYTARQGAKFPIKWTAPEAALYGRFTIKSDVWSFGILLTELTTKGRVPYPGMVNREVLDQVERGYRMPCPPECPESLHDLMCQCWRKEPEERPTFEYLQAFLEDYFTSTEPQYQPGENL
Description: as §1, §2, §3, §4

CAMK1 = biological target: T6, CAMK1 (Homo sapiens, UniProt Q14012); experiment: CAMK1 protein kinase assay; format: biochemical; settings: for remaining activity at 10 µM: 10 μM compound; for residual kinase activity CAMK1: 1 μm compound; for remaining activity at 1 µM: 1 μM compound
T6 construct: All protein kinases were of human origin and encoded full length proteins, unless indicated otherwise; made in house
T6 sequence (Q14012 whole entry): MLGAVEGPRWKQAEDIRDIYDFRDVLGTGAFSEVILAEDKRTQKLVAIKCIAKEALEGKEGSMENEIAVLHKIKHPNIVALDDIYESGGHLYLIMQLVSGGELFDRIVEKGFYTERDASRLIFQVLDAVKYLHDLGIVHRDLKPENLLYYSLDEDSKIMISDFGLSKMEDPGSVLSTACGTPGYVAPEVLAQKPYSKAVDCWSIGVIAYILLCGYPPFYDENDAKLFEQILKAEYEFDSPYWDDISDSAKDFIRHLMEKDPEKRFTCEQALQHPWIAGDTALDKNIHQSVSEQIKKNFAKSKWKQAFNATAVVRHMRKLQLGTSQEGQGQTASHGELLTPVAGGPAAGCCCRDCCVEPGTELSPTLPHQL
Description: as §1, §2, §3, §4

DYRK1A = biological target: T7, DYRK1A (Homo sapiens, UniProt Q13627); experiment: DYRK1A protein kinase assay; format: biochemical; settings: for remaining activity at 10 µM: 10 μM compound; for residual kinase activity DYRK1A: 1 μm compound; for remaining activity at 1 µM: 1 μM compound
T7 construct: All protein kinases were of human origin and encoded full length proteins, unless indicated otherwise; made in house
Description: as §1, §2, §3, §4

PKA = biological target: T8, PKA (Homo sapiens, UniProt P17612); experiment: PKA protein kinase assay; format: biochemical; settings: for remaining activity at 10 µM: 10 μM compound; for residual kinase activity PKA: 1 μm compound; for remaining activity at 1 µM: 1 μM compound
T8 construct: All protein kinases were of human origin and encoded full length proteins, unless indicated otherwise; made in house
Description: as §1, §2, §3, §4

[1] = read-out: residual kinase activity PRAK
[2] = read-out: residual kinase activity Lck
[3] = read-out: residual kinase activity PAK5
[4] = read-out: residual kinase activity PIM3
[5] = read-out: residual kinase activity Src
[6] = read-out: residual kinase activity CAMK1
[7] = read-out: residual kinase activity DYRK1A
[8] = read-out: residual kinase activity PKA
[9] = PRAK, read-out: residual kinase activity
[10] = Lck, read-out: residual kinase activity
[11] = PAK5, read-out: residual kinase activity
[12] = PIM3, read-out: residual kinase activity
[13] = Src, read-out: residual kinase activity
[14] = CAMK1, read-out: residual kinase activity
[15] = DYRK1A, read-out: residual kinase activity
[16] = PKA, read-out: residual kinase activity

Row | Compound | remaining activity at 1 µM (PRAK; [9]) [%] | remaining activity at 10 µM (PRAK; [9]) [%] | residual kinase activity (AMPK; 1 μM compound) [%] | residual kinase activity (AMPK; 10 μM compound) [%] | residual kinase activity (ROCK 2; 1 μM compound) [%] | residual kinase activity (ROCK 2; 10 μM compound) [%] | remaining activity at 1 µM (Lck; [10]) [%] | remaining activity at 10 µM (Lck; [10]) [%] | remaining activity at 1 µM (PAK5; [11]) [%] | remaining activity at 10 µM (PAK5; [11]) [%] | remaining activity at 1 µM (PIM3; [12]) [%] | remaining activity at 10 µM (PIM3; [12]) [%] | remaining activity at 1 µM (Src; [13]) [%] | remaining activity at 10 µM (Src; [13]) [%] | remaining activity at 1 µM (CAMK1; [14]) [%] | remaining activity at 10 µM (CAMK1; [14]) [%] | remaining activity at 1 µM (DYRK1A; [15]) [%] | remaining activity at 10 µM (DYRK1A; [15]) [%] | remaining activity at 1 µM (PKA; [16]) [%] | remaining activity at 10 µM (PKA; [16]) [%] | other results
1 | O=C(NCCCNc1nc(Nc2cccc(F)c2)ncc1Br)C1CCC1 [Compound A, cyclobutanecarboxylic acid {3-[5-bromo-2-(3-fluoro-phenylamino)-pyrimidin-4-ylamino]-propyl}-amide, reference compound] |  |  |  |  |  |  |  |  |  |  |  |  |  |  |  |  |  |  |  |  | remaining activity at 10 µM (PRAK; [1]): 31%; residual kinase activity PRAK (PRAK): 65%; residual kinase activity AMPK (AMPK; 10 μM compound): 2%; residual kinase activity AMPK (AMPK; 1 μm compound): 4%; residual kinase activity ROCK 2 (ROCK 2; 10 μM compound): 11%; residual kinase activity ROCK 2 (ROCK 2; 1 μm compound): 33%; remaining activity at 10 µM (Lck; [2]): 10%; residual kinase activity Lck (Lck): 57%; remaining activity at 10 µM (PAK5; [3]): 14%; residual kinase activity PAK5 (PAK5): 46%; remaining activity at 10 µM (PIM3; [4]): 21%; residual kinase activity PIM3 (PIM3): 78%; remaining activity at 10 µM (Src; [5]): 12%; residual kinase activity Src (Src): 53%; remaining activity at 10 µM (CAMK1; [6]): 25%; residual kinase activity CAMK1 (CAMK1): 54%; remaining activity at 10 µM (DYRK1A; [7]): 38%; residual kinase activity DYRK1A (DYRK1A): 74%; remaining activity at 10 µM (PKA; [8]): 22%; residual kinase activity PKA (PKA): 75%
2 | O=C(NCCCNc1nc(Nc2cccc(F)c2)ncc1C1CC1)C1CCC1 [Example 23, Cyclobutanecarboxylic acid {3-[5-cyclopropyl-2-(3-fluoro-phenylamino)-pyrimidin-4-ylamino]-propyl}-amide] | 93 | 96 | 45 | 8 | 77 | 40 | 86 | 37 | 74 | 56 | 73 | 37 | 77 | 50 | 77 | 66 | 78 | 56 | 80 | 73 | remaining activity at 10 µM (PRAK; [1]): 96%; residual kinase activity PRAK (PRAK): 93%; residual kinase activity AMPK (AMPK; 10 μM compound): 8%; residual kinase activity AMPK (AMPK; 1 μm compound): 45%; residual kinase activity ROCK 2 (ROCK 2; 10 μM compound): 40%; residual kinase activity ROCK 2 (ROCK 2; 1 μm compound): 77%; remaining activity at 10 µM (Lck; [2]): 37%; residual kinase activity Lck (Lck): 86%; remaining activity at 10 µM (PAK5; [3]): 56%; residual kinase activity PAK5 (PAK5): 74%; remaining activity at 10 µM (PIM3; [4]): 37%; residual kinase activity PIM3 (PIM3): 73%; remaining activity at 10 µM (Src; [5]): 50%; residual kinase activity Src (Src): 77%; remaining activity at 10 µM (CAMK1; [6]): 66%; residual kinase activity CAMK1 (CAMK1): 77%; remaining activity at 10 µM (DYRK1A; [7]): 56%; residual kinase activity DYRK1A (DYRK1A): 78%; remaining activity at 10 µM (PKA; [8]): 73%; residual kinase activity PKA (PKA): 80%
3 | O=C(NCCCNc1nc(Nc2cccc(N3CCCC3=O)c2)ncc1C1CC1)c1cccs1 [Example 47, Thiophene-2-carboxylic acid (3-{5-cyclopropyl-2-[3-(2-oxo-pyrrolidin-1-yl)-phenylamino]-pyrimidin-4-ylamino}-propyl)-amide. Hydrochloride salt] | 70 | 76 | 77 | 30 | 85 | 48 | 105 | 69 | 69 | 68 | 99 | 78 | 80 | 67 | 91 | 73 | 84 | 78 | 96 | 80 | 
4 | O=C(NCCCNc1nc(Nc2cccnc2)ncc1C1CC1)c1cccs1 [Example 50, Thiophene-2-carboxylic acid {3-[5-cyclopropyl-2-(pyridin-3-ylamino)-pyrimidin-4-ylamino]-propyl}-amide] | 64 | 64 | 76 | 38 | 77 | 51 | 91 | 50 | 73 | 47 | 102 | 50 | 84 | 50 | 94 | 71 | 88 | 57 | 91 | 80 | 
